Values of other authors in patent US20040224916A1 (priority 2003, published 2004).
Like-named read-outs stand apart in the source and are kept apart here.

How the values were obtained:
[1] = tested on: HIV-1; conditions: in vitro, with agents acting at steps other than reverse transcription, including recombinant soluble CD4, castanospermine, recombinant interferon-α
[2] = dogs and rhesus monkeys
[3] = tested on: HIV

Row | Compound | antiviral activity in combination [1] | stability in plasma [2] | effectiveness of S-configuration (at phosphorus) diastereomer relative to R-configuration diastereomer [3] [fold] | effectiveness relative to tenofovir against HIV in culture ([3]; as stated in b46) [times] | effectiveness relative to tenofovir against HIV in culture ([3]; as stated in b47) [fold]
1 | Cc1cn([C@H]2C[C@H](N=[N+]=[N-])[C@@H](CO)O2)c(=O)[nH]c1=O [AZT, 3′-azido, 3′-deoxythymidine] | synergistic antiviral activity | – | – | – | –
2 | CC(C)OC(=O)[C@H](C)N[P@](=O)(CO[C@H](C)Cn1cnc2c(N)ncnc21)Oc1ccccc1 [GS-7340, 9-[(R)-2-[[(S)-[[(S)-1-(isopropoxycarbonyl)ethyl]amino]phenoxyphosphinyl]methoxy]propyl]adenine] | – | stable in plasma | 10 | 1000 | 100
